The test system of data set [1] is SK-OV-NTR cells (SK-OV-3 stably transfected with bacterial NTR genes). Briefly: Nitroreductase assay, delivery of nitroreductase reporter, transfected cells. It is filed as cell-based, Human. The following applies: 10 μM, 5 hour incubation. The source says:
(§1) As disclosed in PCT/GB99/01746, the fluorescence properties of cyanine dyes may be modified by substitution of the dye with nitro, and/or dinitrobenzyl groups, which have the effect of reducing or abolishing the fluorescence from the molecule. An example of such a quenching or “dark” dye is Cy5Q (Amersham Pharmacia Biotech). In the presence of the enzyme, nitroreductase (NTR), a nitro-group substituent of Cy5Q may be converted to an amino-group, with the result that there is an increase in the fluorescence intensity of the dye. This may be used as the basis for an assay for the measurement of intracellular nitroreductase. In this example, Cy5Q is conjugated to a carrier peptide and is used as an indicator of nitroreductase (NTR) in whole, living cells.
(§2) The assay may be carried out using cells transfected with DNA encoding the gene for bacterial NTR, such that when the Cy5Q conjugate is introduced into such a transfected cell line, an increase in fluorescence is measured. […]
(§3) Cy5Q chemically linked to the carrier peptide Ac-Ala-Pro-Thr-Arg-Val-Leu-Pro-Pro-Leu-Val-Ala-Gly-Gly-Lys-amide was incubated with cells (30,000 cells/well) (1-5 hours, 5% CO2, 37° C., 95% humidity), cells washed (×3) with PBS and fluorescence measured from below, using a CytoFluor multi-well plate reader (Applied Biosystems), (activating at 610 nm, emission 670 nm). […]

In a further data set the test system is parental SK-OV cells. The data set is described as follows: Nitroreductase assay, delivery of nitroreductase reporter, non-transfected cells. It is filed as cell-based, Human. The following applies: 10 μM, parental cell lines, FIG. 9.
Excerpt: as §1, §2, §3

The next data set has as its system NIH 3T3. The data set is described as follows: Selective permeabilisation with digitonin (cytosolic vs organelle fraction fluorescence). The data set is classed as cell-based, Mouse. The following applies: 60 min incubation, 20 μM digitonin 3 min, FIG. 8. How it is done: Mouse fibroblasts (NIH 3T3) were cultured at 1×10^6 cells/ml in DMEM (see above) on 24-well tissue culture plates (Costar Inc.). Cells were incubated with Cy3- labelled carrier peptides (H2N-Ala-Pro-Thr-Arg-Val-Pro-Leu-Pro-Leu-Pro-Val-Gly-Gly-Lys-OH (SEQ ID No.4); H2N-Ala-Pro-Thr-Arg-Ala-Val-Leu-Pro-Leu-Ala-Val-Gly-Gly-Lys-OH (SEQ ID No.5); H2N-Ala-Pro-Thr-Arg-Val-Leu-Pro-Pro-Leu-Val-Ala-Gly-Gly-Lys-OH (SEQ ID No.6); H2N-Ala-Pro-Thr-Arg-Val-Leu-Leu-Pro-Leu-Leu-Val-Gly-Gly-Lys-OH (SEQ ID No.7) for 60 minutes (5% CO2, 37° C., 95% humidity). Cells were washed (×4) with PBS, before addition of 20 μM digitonin for 3 minutes. Cells were rapidly centrifuged (10,000×g, for 5 minutes) to separate into supernatant (cytosolic) and pellet (organelle) fractions. The fluorescence activity was then measured using a CytoFluor multi-well plate reader (activating at 530 nm, emission 590 nm). Unlabelled cells (cells without dye), unlabelled Cy3 (unlinked dye) (Amersham Pharmacia Biotech), and, untreated cells (unpermeabilised cells without digitonin), were used as controls. […] Cytosolic preparations were confirmed using an assay for cytoplasmic lactic dehydrogenase (LDH) in the presence of PNADH (Wroblewski & LaDue, Proc. Soc. Exp. Biol. Med. 1955, (90), 210-213.

In data set [2] the test system is NIH 3T3 cells. The data set is described as follows: Cellular uptake of Cy3 linked to carrier peptide (plate reader, fluorescence and confocal microscopy). The data set is classed as cell-based, Mouse. The protocol: Mouse fibroblasts (NIH 3T3) or human ovary adenocarcinoma (SK-OV) cells were cultured in Dulbecco's modified Eagle's medium (DMEM) supplemented with 10% (v/v) foetal calf serum (FCS), 4 mM L-glutamine, 100 U/ml penicillin and 100 μg/ml streptomycin. NIH 3T3 cells were grown on 96-well tissue culture plates (Costar Inc.) or WillCo-dishes (glass-bottomed dishes, with 0.17 mm cover glass for inverted microscopes) (WillCo), before treatment with carrier peptide. Cells were incubated (60 min, 5% CO2, 37° C., 95% humidity) with Cy3 linked to carrier peptide (H2N-Ala-Pro-Thr-Arg-Val-Leu-Pro-Pro-Leu-Val-Ala-Gly-Gly-Lys-OH) (SEQ ID No.6)) (range 1-100 μM). After incubation, the culture supernatant was decanted and the cells were washed. Cy3 (unlinked dye) (Amersham Pharmacia Biotech) was used as a control. Cellular fluorescence was detected using a CytoFluor multi-well plate reader (Applied Biosystems, Foster City, Calif., USA), (activating at 530 nm, emission 590 nm) (FIG. 1); a Nikon-Diaphot 300 fluorescence microscope, (activating at 490 nm, emission at 520 nm); and a Zeiss Microsystems confocal laser scanning microscope (LSM4) (activating at 515 nm, emission at 565 nm) (FIGS. 2 (a) and (b)). Cells were further studied for intracellular dye localization by a twenty-step Z-position sectional scanning of the cell (0.5 μm/section) using a 40× oil immersion lens (FIG. 3). […]

Data set [3] relates to NIH 3T3 cells. The data set is described as follows: Flow cytometry of cells incubated with Cy3 linked to carrier peptide. It is filed as cell-based, Mouse. The following applies: 1 μM, 60 min. How it is done:
Mouse fibroblasts (NIH 3T3 cells) were cultured in DMEM (see above) on 24-well tissue culture plates (Costar Inc.). Cells were incubated (60 min, 5% CO2, 37° C., 95% humidity) with Cy3 (1 μM) linked to carrier peptide (H2N-Ala-Pro-Thr-Arg-Val-Leu-Pro-Pro-Leu-Val-Ala-Gly-Gly-Lys-OH (SEQ ID No.6)). After incubation, the culture supernatant was decanted and the cells washed. Cells were trypsinised (0.25% w/v, 5 min) and re-suspended in PBS, before analysis by flow cytometry (see below). Untreated cells and Cy3 only (unlinked dye) (Amersham Pharmacia Biotech) were used as controls.
All samples were analyzed on a FACSCalibur Flow Cytometry System (Becton Dickinson, San Jose, Calif., USA) with CellQuest software. The instrument is equipped with a 488 nm argon-ion laser and 5 detection parameters. There are 2 scatter detectors, known as forward scatter (FSC) and side scatter (SSC) which provide information about cellular size and internal complexity, respectively. In addition, there are three relative fluorescence intensity detectors. Cy3 labelling was monitored with the second fluorescence detector (FL2) fitted with a 585/42 nm filter. […]
Histogram markers were set so that only 2-3% of the recorded events were past the FL2 channel marker 30 for the dye only control.

The test system of data set [4] is NIH 3T3 cells. Briefly: Cellular delivery of nuclear localization sequence (confocal microscopy). The data set is classed as cell-based, Mouse. The following applies: overnight incubation, FIG. 10. How it is done: NIH 3T3 cells were cultured (see above) on WillCo-dishes (glass-bottomed dishes, with 0.17 mm cover glass for inverted microscopes) (WillCo), before treatment with carrier peptide linked to the nuclear localization sequence. Confluent NIH 3T3 cells were incubated (overnight, 5% CO2, 37° C., 95% humidity) in the presence of Cy3-[…]amide, before washing (×3) with PBS, and visualization using a Zeiss Microsystems confocal laser scanning microscope (LSM4) (activating at 515 nm, emission at 565 nm). Controls included Cy3 linked to carrier peptide (Cy3-Ala-Pro-Thr-Arg-Val-Leu-Pro-Pro-Leu-Val-Ala-Gly-Gly-Lys-OH), and unlabelled Cy3 (unlinked dye) (Amersham Pharmacia Biotech).

“Also recorded” adds a separate entry of the source. No end group written: not given here. Cy5Q = quencher

For “Ac-Ala-Pro-Thr-Arg-Val-Leu-Pro-Pro-Leu-Val-Ala-Gly-Gly-Lys(Cy5Q)-amide (Ac-APTRVLPPLVAGGK(Cy5Q)-NH2) [carrier peptide linked to Cy5Q]”, the “cellular uptake and substrate conversion (Cy5Q fluorescence)” value in data set [1] (FIG. 9) was “significant cellular internalization and substrate conversion”; in data set [1] (FIG. 9, listed as delivery peptide linked to Cy5Q), “significant cellular uptake and substrate conversion”. Also, the “substrate conversion (Cy5Q fluorescence)” value in the data set on parental SK-OV cells was “Little conversion”.
With “Cy3 linked to carrier peptide (SEQ ID No.4): Cy3 dye linked through NHS ester to carrier peptide H2N-Ala-Pro-Thr-Arg-Val-Pro-Leu-Pro-Leu-Pro-Val-Gly-Gly-Lys-OH (APTRVPLPLPVGGK-OH; also: Cy3 dye linked through NHS ester, site not given here)”, the “delivered dye in the cytosol (supernatant fraction after digitonin)” value in the data set on NIH 3T3 is given as “significant amount of delivered agent in the cytosol; also recorded: significant amount of delivered dye into the cytosol”.
Still for that read-out and setting: with “Cy3 linked to carrier peptide (SEQ ID No.5): Cy3 dye linked through NHS ester to carrier peptide H2N-Ala-Pro-Thr-Arg-Ala-Val-Leu-Pro-Leu-Ala-Val-Gly-Gly-Lys-OH (APTRAVLPLAVGGK-OH; also: Cy3 dye linked through NHS ester, site not given here)” the entry was “significant amount of delivered agent in the cytosol; also recorded: significant amount of delivered dye into the cytosol”; with “Cy3 linked to carrier peptide (SEQ ID No.7): Cy3 dye linked through NHS ester to carrier peptide H2N-Ala-Pro-Thr-Arg-Val-Leu-Leu-Pro-Leu-Leu-Val-Gly-Gly-Lys-OH (APTRVLLPLLVGGK-OH; also: Cy3 dye linked through NHS ester, site not given here)”, “significant amount of delivered agent in the cytosol; also recorded: significant amount of delivered dye into the cytosol”.
With “Cy3-Ala-Pro-Thr-Arg-Val-Leu-Pro-Pro-Leu-Val-Ala-Gly-Gly-Lys-OH (Cy3-APTRVLPPLVAGGK-OH)”, the “intracellular dye localization by twenty-step Z-position sectional scanning” value with NIH 3T3 cells [2] (confocal, 0.5 μm/section, FIG. 3) is “dye staining in the central portion of the cell, and little staining on the periphery or cell membrane”. For the same substance, the “uptake of Cy3 into NIH 3T3 cells (cellular fluorescence)” value in the data set on NIH 3T3 cells [2] (range 1-100 μM, 60 min, CytoFluor plate reader, FIG. 1) is on record as “dose-dependent uptake”. Also, the “uptake of Cy3 across the cell population (dot plots)” value with NIH 3T3 cells [3] (FIG. 5) is given as “homogeneous uptake”. For the same substance, the “increase in fluorescence geometric mean between dye control and test cells” value with NIH 3T3 cells [3] (FL2 histogram, FIG. 6) is “approximately 5 fold”. For the same substance, the “delivered dye in the cytosol (supernatant fraction after digitonin)” value with NIH 3T3 is recorded as “significant amount of delivered agent in the cytosol; also recorded: significant amount of delivered dye into the cytosol”.
In the case of “Cy3-Ser-Ser-Asp-Asp-Glu-Ala-Thr-Ala-Ser-Asp-Gln-His-Ser-Thr-Pro-Pro-Lys-Lys-Lys-Arg-Lys-Val-Glu-Asp-Pro-Lys-Ala-Pro-Thr-Arg-Val-Leu-Pro-Pro-Leu-Val-Ala-Gly-Gly-Lys-amide”, the “nuclear staining compared with the controls” value in the data set on NIH 3T3 cells [4] is given as “more pronounced nuclear staining”.

Source of the values: patent publication US20030113819A1, “Carrier peptide and method for delivery of molecules into cells” (priority 2002, published 2003).
